Experiment [1] concerns dopaminergic neurons (MPTP lesioning). Kind of experiment: MPTP model of Parkinson's Disease in mice, concurrent dosing paradigm. The experiment is classed as in vivo. The conditions noted are these: male CD1 mice, anti-tyrosine hydroxylase immunostaining at 18 days; for % recovery of dopaminergic neurons at 10 mg/kg: po. As to the method:
MPTP lesioning of dopaminergic neurons in mice was used as an animal model of Parkinson's Disease. Four week old male CD1 white mice were dosed i.p. with 30 mg/kg of MPTP for 5 days. Inventive compounds (4 mg/kg), or vehicle, were administered s.c. along with the MPTP for 5 days, as well as for an additional 5 days following cessation of MPTP treatment (Table IV). Inventive compounds (10 mg/kg), or vehicle, were also administered p.o. along with the MPTP for 5 days, as well as for an additional 5 days following cessation of MPTP treatment (Table V). At 18 days following MPTP treatment, the animals were sacrificed and the striata were dissected and homogenized. Immunostaining was performed on saggital and coronal brain sections using anti-tyrosine hydoxylase Ig to quantitate survival and recovery of dopaminergic neurons. In animals treated with MPTP and vehicle, a substantial loss of functional dopaminergic terminals was observed as compared to non-lesioned animals. In another protocol, test compounds were administered only subsequent to MPTP-induced lesioning. Thus, after animals were treated with MPTP for 5 days, an additional 3 days passed before beginning oral drug treatment on day 8. Animals were treated with inventive compounds (0.4 mg/kg), administered orally, once a day for 5 days total. On day 18, the animals were sacrificed and analyzed as described above. Tables IV and V present the percent recovery of dopaminergic neurons in the first (concurrent dosing) paradigms in animals receiving hydantoin derivative compounds.
Tables IV and V, below, show the remarkable neuroregenerative effects of the inventive hydantoin derivative compounds illustrating the neurotrophic capability of these compounds as a class showing that lesioned animals receiving the hydantoin derivative compounds provide a remarkable recovery of TH-stained dopaminergic neurons.

Experiment [2] concerns the target FKBP-12 peptidyl-prolyl isomerase (rotamase) (Homo sapiens, UniProt P62942). Kind of experiment: Ki test procedure: inhibition of FKBP peptidyl-prolyl isomerase (rotamase) activity, chymotrypsin-coupled assay. The experiment is classed as biochemical. The conditions noted are these: apparent Ki, substrate N-succinyl-Ala-Ala-Pro-Phe-p-nitroanilide. An excerpt:
The binding to FBKP12 and inhibition of the peptidyl-prolyl isomerase (rotamase) activity of the compounds used in the inventive methods and pharmaceutical compositions can be evaluated by known methods described in the literature (Harding et al., Nature, 1989, 341:758-760; Holt et al. J. Am. Chem. Soc., 115:9923-9938). These values are obtained as apparent Ki's and are presented for representative compounds in TABLE III.
The cis-trans isomerization of an alanine-proline bond in a model substrate, N-succinyl-Ala-Ala-Pro-Phe-p-nitroanilide, is monitored spectrophotometrically in a chymotrypsin-coupled assay, which releases para-nitroanilide from the trans form of the substrate. The inhibition of this reaction caused by the addition of different concentrations of inhibitor is determined, and the data is analyzed as a change in first-order rate constant as a function of inhibitor concentration to yield the apparent K1 values. […]
The absorbance at 390 nm versus time is monitored for 90 seconds using a spectrophotometer and the rate constants are determined from the absorbance versus time data files.

[3] abbreviates: Mus musculus, Neuron, 432 h, 10 mg/kg p.o. with MPTP (30 mg/kg i.p.) for 5 days plus 5 further days.

Consider 15 molecules from patent US6974823B2, “Hydantoin derivative compounds, pharmaceutical compositions, and methods of using same” (GPI NIL Holdindgs, Inc., priority 1999, dated 2005).

Sequence of FKBP-12 peptidyl-prolyl isomerase (rotamase) (P62942 whole entry): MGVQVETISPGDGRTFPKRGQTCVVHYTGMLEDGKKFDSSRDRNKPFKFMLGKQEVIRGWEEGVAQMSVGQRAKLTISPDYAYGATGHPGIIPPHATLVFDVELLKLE

Take `O=C1[C@@H]2CCCN2C(=O)N1c1ccccc1-c1ccccc1` [Compound 2, (7aS)-2-(2′-Phenyl)phenylperhydropyrrolo[1,2-c]imidazole-1,3-dione]: the “% Recovery of dopaminergic neurons” value in experiment [1] (10 mg/kg p.o. with MPTP (30 mg/kg i.p.) for 5 days plus 5 further days) is listed as 38.40%. Consider `O=C1[C@@H]2CCCN2C(=O)N1c1cccc2ccccc12` [Compound 1, (7aS)-2-(1-Naphthyl)perhydropyrrolo[1,2-c]imidazole-1,3-dione], for which the % recovery of dopaminergic neurons at 4 mg/kg in experiment [1] (Mus musculus, Neuron, sc, 432 h, 4 mg/kg s.c. with MPTP (30 mg/kg i.p.) for 5 days plus 5 further days) was found to be 32.2%. The Ki in experiment [2] is above 10 µM. Consider `O=C1[C@@H]2CCCN2C(=O)N1c1ccc(C(F)(F)F)cc1` [Compound 3, (7aS)-2-(4-(Trifluoromethyl)phenyl)perhydropyrrolo[1,2-c]imidazole-1,3-dione], for which the % recovery of dopaminergic neurons at 10 mg/kg in experiment [1] (setting [3]) is 78.8%. On the same count and under the same terms, to `O=C1C2CCCCN2C(=O)N1Cc1ccccc1` (stereo not shown) [Compound 38, 2-Benzyl-2,5,6,7,8,8a-hexahydro-2-azaindolizine-1,3-dione] belongs 31.4%. Still for that read-out and setting: the same measure for `O=C1C2CCCCN2C(=S)N1CCCc1ccccc1` (stereo not shown) [Compound 43, 2-(3-phenylpropyl)-3-thioxo-2,5,6,7,8,8a-hexahydro-2-azaindolizin-1-one]: 40.1%; for `O=C1C2CCCCN2C(=S)N1CCc1ccccc1` (stereo not shown) [Compound 40, 2-(2-phenylethyl)-3-thioxo-2,5,6,7,8,8a-hexahydro-2-azaindolizin-1-one]: 11%; for `CCCCN1C(=O)C2CCCCN2C1=O` (stereo not shown) [Compound 74, 2-butyl-2,5,6,7,8,8a-hexahydro-2-azaindolizine-1,3-dione]: 46.4%. Turning to `CCc1ccccc1N1C(=O)C2CCCN2C1=O` (stereo not shown) [Compound 6, 2-(2-ethyl)phenyl-2,5,6,7,7a-pentahydro-2-azapyrrolizin-1,3-dione], the Ki in experiment [2] is above 5 µM.

For `CCCCCCCCN1C(=O)C2CCCCN2C1=O` (stereo not shown) [Compound 42, 2-Octyl-2,5,6,7,8,8a-hexahydro-2-azaindolizine-1,3-dione], the % recovery of dopaminergic neurons at 10 mg/kg in experiment [1] (setting [3]) is 17.4%. Same read-out and setting: the same measure for `O=C1C2CCCCN2C(=O)N1c1ccccc1` (stereo not shown) [Compound 72, 2-phenyl-2,5,6,7,8,8a-hexahydro-2-azaindolizine-1,3-dione]: 37.2%; for `O=C1C2CCCN2C(=S)N1Cc1ccccc1` (stereo not shown) [Compound 4, 2-benzyl-3-thioxo-2,5,6,7,7a-pentahydro-2-azapyrrolizin-1-one]: 49.3%. On the same count and under the same terms, the same measure for `O=C1C2CCCN2C(=S)N1CCCc1ccccc1` (stereo not shown) [Compound 7, 2-(3-phenylpropyl)-3-thioxo-2,5,6,7,7a-pentahydro-2-azapyrrolizin-1-one]: 37.5%; for `O=C1C2CCCCN2C(=S)N1Cc1ccccc1` (stereo not shown) [Compound 39, 2-benzyl-3-thioxo-2,5,6,7,8,8a-hexahydro-2-azaindolizin-1-one]: 11.2%. The same measure, in the same setting: to `O=C1C2CCCN2C(=S)N1CCc1ccccc1` (stereo not shown) [Compound 8, 2-(2-phenylethyl)-3-thioxo-2,5,6,7,7a-pentahydro-2-azapyrrolizin-1-one] belongs 42.5%; to `CCCCCCCN1C(=O)C2CCCCN2C1=O` (stereo not shown) [Compound 41, 2-Heptyl-2,5,6,7,8,8a-hexahydro-2-azaindolizine-1,3-dione], 8.8%.
